In patent US20080108642A1 (Tsinghua University, priority 2006, published 2008):
Entries after “also recorded” stand apart in the source; their conditions may differ. Structures can show the parent of a compound that is named as a salt.

Experiments:
[1] = LC-DAD-MS analysis of ingredients in rat plasma after oral administration of QLY decoction; settings: 20 minutes after oral administration of QLY decoction
Source text: Liquid chromatography simultaneously coupled with a diode array detector and a mass spectrometry detector (LC-DAD-MS) was used to analyze the pharmaceutical ingredients in rat plasma at different time points after oral administration of QLY decoction in order to determine the ingredients in QLY that could be absorbed into the body through metabolism. In this experiment, performed were comparison analyses of chromatogram and mass spectrum of QLY decoction and those of decoction of each of the constituent herbs of QLY, comparison analyses of chromatogram and mass spectrum of QLY decoction and those of QLY decoction plus blank plasma, comparison analyses of chromatogram and mass spectrum of blank plasma and those of post-administration plasma (blood sample taken at 20 min, 1 h, and 2 h respectively after oral administration of QLY decoction).

[2] = tested on: Human Umbilical Vein Endothelial Cells (HUVEC); assay: Suppression of endothelial cell proliferation, separate and combined use (equivalent curve / response surface method); type: cell-based; settings: separate use
Source text: Human Umbilical Vein Endothelial Cells (HUVEC) were employed in the experiment and the suppression rate on endothelial cell proliferation were monitored. Classical methods including equivalent curve method and the response surface method were used and the amount-effect curves were plotted.

| SMILES | detected in plasma of rats after oral administration of QLY [1] | effect on suppressing proliferation of endothelial cells (anti-angiogenesis activity) [2] | effect on suppressing proliferation of endothelial cells (anti-angiogenesis activity) ([2]; hydrochloride) |
| --- | --- | --- | --- |
| CN1C[C@@H]2C[C@H](C1)c1cccc(=O)n1C2 [N-methylcytisine] | small amounts |  |  |
| O=C1CCCC2C3CCCN4CCCC(CN12)C34 (stereo not drawn) [matrine, Matrine] | detected | relatively strong; also recorded: remarkable effect |  |
| COC1=C[C@@H]2[C@@H]3Cc4ccc(OC)c(O)c4[C@]2(CCN3C)CC1=O [sinomenine hydrochloride] |  |  | relatively strong; also recorded: remarkable effect |
| COC1=CC2C3Cc4ccc(OC)c(O)c4[C@]2(CCN3C)CC1=O (stereo partly drawn) [sinomenine, Sinomenine] | detected |  |  |
| O=C1C=CC[C@@H]2[C@H]3CCCN4CCC[C@@H](CN12)[C@@H]34 [sophocarpine] | small amounts |  |  |
